The values that follow come from patent publication US5167616A, “Iontophoretic delivery method” (priority 1989, dated 1992).

This series can be described thus: Iontophoretic transdermal flux of metoclopramide through human cadaver skin (heat-stripped epidermis, two-compartment permeation test cell). It counts as in vitro ADME. Conditions: for Ratio of Average Flux-to-Power: power from voltage at 3.75 hours. The protocol: The transdermal flux of metoclopramide HC1 through samples of human cadaver back skin was measured using a polycarbonate test cell in which the skin sample to be tested is secured between a donor compartment and a receptor compartment. […] The area of the skin samples available for transport was 1.26 cm^2. The test cell device was maintained at a temperature of 32° C. using an aluminum block heat exchanger. An anode comprising a disk of silver foil having a thickness of 0.025 mm was present in the donor compartment while a cathode comprising a sintered disk of powdered silver metal and silver chloride was present in the receptor compartment. Thus, the reduction of silver ions to silver metal occurred at the cathode, while the oxidation of silver to silver ions took place at the anode.
Human cadaver skin was used for the permeation studies. Before securing the skin samples between the donor and the receptor compartment of the test cell, the skin was first heat-stripped by immersing the skin sample in water maintained at 60° C. for 90 seconds allowing the epidermis layer to be separated from the dermis. Circular epidermis samples having a diameter of 2.22 cm were cut using a gasket cutting punch. The epidermis samples were then mounted in the permeation test cell with the stratum corneum side facing the donor compartment.
The electrodes of the test cell were then connected to a Model 363 Potentiostat/Galvanostat, made by EG&G Princeton Applied Research, Princeton, NJ, which supplied a constant level of direct current of 126 μA or 100 μA/cm^2.
The test cell was in operation for four hours with each skin sample. During operation, metoclopramide was iontophoretically delivered from the donor solution through the cadaver skin into the receptor solution. The receptor solution was sampled once every hour over the four hour period. The entire volume (2 ml) of receptor solution was collected and replaced with fresh solution at each sampling point. The metoclopramide concentration in the receptor solution was determined by UV absorbance at 310 nm using a spectrophotometer manufactured by Hewlett Packard, of Palo Alto, CA, Model No. 8452A. Each flux data point shown in FIG. 4 was an average value from three skin specimens, all three specimens having been taken from the same cadaver.
The voltage for each skin sample was monitored throughout the experiment. A representative voltage was measured at 3.75 hours after start of operation for each skin sample and is recorded in Table 2. The power was calculated by multiplying the measured voltage at 3.75 hours by the applied current (i.e., 100 μA/cm^2).
The same equipment and procedures described in Example 1 were used to test human cadaver skin taken from the following sites of the same cadaver tested in Example 1: abdomen, upper arm, forearm, chest and hip/thigh. The average flux of metoclopramide through these skin sites is also plotted in FIG. 4. […] In general, the flux of metoclopramide through back skin was about 50% to 150% higher than the metoclopramide flux through the other tested skin sites.

Several values for one entry are separate records, joined by “and”; a condition that tells them apart may be missing. Equal values may be shown once.

`CCN(CC)CCNC(=O)c1cc(Cl)c(N)cc1OC` [metoclopramide]: the “Flux through back skin, increase over flux through the other tested skin sites” value is recorded as 50-150% and the “Flux through human back skin compared with the other tested skin sites (in words)” value is given as “significantly higher flux”. Besides, the “Average Ratio of Average Flux-to-Power” value (Abdomen skin, mean of 3 samples) is recorded as 336 μg/cm^2 · hr .multido. For the same compound, the “Ratio of Average Flux-to-Power” value (Abdomen skin) is 347 μg/cm^2 · hr .multido and 277 μg/cm^2 · hr .multido and 384 μg/cm^2 · hr .multido. The “Average Ratio of Average Flux-to-Power” value (Back skin, mean of 6 samples) came out at 431 μg/cm^2 · hr .multido. Besides, the “Average Ratio of Average Flux-to-Power” value (Chest skin, mean of 3 samples) amounted to 204 μg/cm^2 · hr .multido. The “Ratio of Average Flux-to-Power” value (Chest skin) was 205 μg/cm^2 · hr .multido and 196 μg/cm^2 · hr .multido and 211 μg/cm^2 · hr .multido. Further, where the note is “Forearm skin, mean of 3 samples”, the “Average Ratio of Average Flux-to-Power” value came out at 230 μg/cm^2 · hr .multido. The “Average Ratio of Average Flux-to-Power” value (Hip/Thigh skin, mean of 3 samples) came out at 222 μg/cm^2 · hr .multido. Besides, the “Ratio of Average Flux-to-Power” value (Hip/Thigh skin) is 164 μg/cm^2 · hr .multido and 305 μg/cm^2 · hr .multido and 197 μg/cm^2 · hr .multido. Moreover, for the setting “Upper Arm skin, mean of 2 samples”, the “Average Ratio of Average Flux-to-Power” value came out at 307 μg/cm^2 · hr .multido. The “Average ratio of average flux-to-power, ranking of skin sites (in words)” value (back skin, followed by the abdomen and upper arm, Table 2) was “highest average ratio of average flux-to-power”.
